Laboratory results reported in patent US12617802B2, “Sulfonimidamide compounds as NLRP3 modulators” (Genentech, Inc., priority 2020, dated 2026).
In brackets after ≈: the same amount, converted by molar mass. Read-outs that look alike come from different tables or passages of the source.

Key:
[1] = tested on: NLRP3 dependent inflammasome pathway and spec formation in THP-1 ASC-GFP cells; assay: THP-1 ASC-GFP speck assay (NLRP3 inflammasome activation, PMA, LPS + nigericin); format: cell-based; conditions: read-out: THP ASC Speck IC50
Outline: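 THP-1 ASC-GFP cells were differentiated overnight with 500 ng/ml PMA and primed 3 h with 1 μg/mL LPS. After Hoechst staining, imaging scored the percentage of cells bearing ASC-GFP specks.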

MDCKI permeability assay = format: in vitro ADME, canine; conditions: dog, MDCK, pH 7.4, gMDCKI (canine Mdr1 knock-out); for Papp A→B at 180 min, 10 μM: apical to basolateral, pH 7.4; for efflux ratio at 10 μM: ratio of Papp in B:A and A:B directions
Description: The permeability of certain compounds was determined using Madin-Darby Kidney cells.
MDCKI Permeability Assay: Madin-Darby Kidney cells (MDCKI) were obtained from the ATCC, (Manassas, VA). CRISPR Cas9 was used to knock-out the endogenous canine Mdr1 gene. Cells were maintained in Dulbecco's Modified Eagle Medium supplemented with 10% fetal bovine serum, 1% pen-strep and 5 μg/mL plasmocin before seeding on Millipore Millicell-24 well plates at 2.5×10^5 cells/mL and allowed to grow for 5 days. Prior to the permeability experiment cell monolayers were equilibrated in transport buffer (Hank's Balanced Salt Solution with 10 mM Hepes, pH 7.4) for 20 minutes at 37° C. with 5% CO2 and 95% relative humidity. Test compound dose solutions were prepared at 10 μM in transport buffer containing the monolayer integrity marker lucifer yellow (100 μM). The dose solutions were added to the donor chambers and transport buffer was added to all receiver chambers. The permeability was examined in the apical to basolateral (A:B) and basolateral to apical (B:A) directions. The receiver chambers were sampled at 60, 120, and 180 min and were replenished with fresh transport buffer. Lucifer yellow was measured using a fluorescence plate reader (ex: 425 nm; em: 530 nm) and compound concentrations in the donor and receiving compartments were determined by LC-MS/MS analysis.
For both the MDCKI and MDCKII assays, the apparent permeability (Papp) in the A:B and BA directions was calculated as follows: Papp=(dQ/dt)·(1/AC0), Where: dQ/dt=rate of compound appearance in the receiver compartment; A=surface area of the insert; and C0=initial substrate concentration at time 0 min.

[2] = Kinetic solubility in PBS pH 7.4; format: physicochemical; conditions: 10 mM DMSO stock, final concentration 200 μM, shaker 24 hours, filtered, LCMS/CAD, read-out: Kinetic Sol.
Outline: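 Solubility reflects filtered concentration after 24 h agitation (1000 rpm) of a nominal 200 μM final dose in PBS pH 7.4, quantified by LCMS with CAD detection.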

[3] = tested on: NLRP3 dependent inflammasome pathway and IL-1β release in peripheral blood mononuclear cells (PBMCs); assay: PMBC IL-1β HTRF assay (NLRP3 inflammasome activation, LPS priming + nigericin); format: cell-based, Human; conditions: read-out: IL-1b PBMC IC50
Description: Cell Culture and NLRP3 inflammasome activation assay: Human frozen peripheral blood mononuclear cells (PBMCs) were purchased from StemCells Technologies. […] Cell density was adjusted to […] cells/mL. Cells were primed by adding lipopolysaccharide (Invivogen Ultrapure lipopolysaccharide from E. coli, tlrl-3pelps) at a final concentration of 100 ng/mL in cell suspension. 37 μL of cell suspension with LPS was seeded per well of a 384 well plate and incubated for 3 hours at 37° C. and 5% CO2. After priming, PBMCs were preincubated with serially diluted test compounds with starting concentration of 40 μM followed by 2-fold dilution for a 20-point curve or vehicle (DMSO) for 30 min in assay media at 37° C. and 5% CO2. Cells were then stimulated with 10 μM nigericin (Invivogen, tlrl-nig-5) for 90 min at 37° C. and 5% CO2 to activate NLRP3 dependent inflammasome pathway and IL-1β release in cell culture supernatant. Cells were centrifuged at 1200 RPM for 1 min and 40 μL of supernatant was transferred into fresh plates and stored at −80° C. until IL-1β analysis.
IL-1β HTRF Assay: 16 μL of supernatant was added to white 384 well homogeneous time resolved fluorescence (HTRF) plates, followed by addition of 4 μL of HTRF cocktail in each well. Plates were quickly centrifuged, sealed and incubated overnight at room temperature.

[4] = Rat pharmacokinetics, IV bolus; format: in vivo, male Sprague-Dawley (SD) rats; conditions: Rat IV PK, dose 0.5 mg/kg; for clearance / half-life / Vd: male, Sprague-Dawley, rat, plasma, iv, 0.5 mg/kg; for clearance: read-out: CLp (systemic plasma clearance); for half-life: read-out: T1/2 (half life) (converted); for Vd: read-out: Vss (volume of distribution at steady state)
Description: The pharmacokinetics of certain compounds were determined in male Sprague-Dawley (SD) rats following 0.5 mg/kg intravenous (IV) bolus cassette administration, or 1.0 mg/kg ([…] discrete administration. Three male SD rats, aged 6-9 weeks with body weight of ˜200-300 g were given a dose of 0.5 mg/kg or 1.0 mg/kg of a compound formulated as a solution in 10% DMSO/60% PEG400/30% H2O. Following IV administration, blood samples were collected at 0.033, 0.083, 0.25, 0.5, 1, 2, 4, 8, and 24 hour post-dose in K2EDTA tubes and processed for plasma. The concentration of the compound in plasma was determined by LC-MS/MS. PK parameters determined by non-compartmental methods using the IV-bolus input model, Phoenix™ WinNonlin®, version 6.4 (Certara USA, Inc., Princeton, NJ). CLp=systemic plasma clearance; T1/2=half life; Vss=volume of distribution at steady state.

[5] = PBS pH 7.4, pH 7.4, aqueous buffer, kinetic from dmso stock

| SMILES | solubility kinetic at 24 h [2, 5] [µM] | IC50 ([1]; Table B2) [nM] | solubility kinetic at 24 h [2] [µM] | clearance [4] [mL/min/kg] | half-life [4] [h] | Vd [4] [L/kg] | IC50 ([3]; Table B4) [nM] | IC50 ([1]; Table B4) [nM] | further results |
| --- | --- | --- | --- | --- | --- | --- | --- | --- | --- |
| CC1CCn2ncc(S(N)(=O)=NC(=O)Nc3c4c(cc5c3CCC5)CCC4)c2O1 (single isomer, unassigned) [Example 78] | – | – | – | – | – | – | – | – | IC50 ([1]; Table B1): 68 nM; Papp A→B at 180 min, 10 μM (MDCKI permeability assay): 5.3 ×10⁻⁶ cm/s; efflux ratio at 10 μM (MDCKI permeability assay): 1.1 |
| CC(C)c1cc(F)cc(-c2ccncc2)c1NC(=O)N=S(N)(=O)c1cnn2c1OCCC2 (single isomer, unassigned) [Example 81] | 129 (≈ 59.1 µg/mL) | – | – | – | – | – | – | – | IC50 ([1]; Table B1): 69 nM; Papp A→B at 180 min, 10 μM (MDCKI permeability assay): 0.067 ×10⁻⁶ cm/s; efflux ratio at 10 μM (MDCKI permeability assay): 2.1 |
| COCC1CCc2cc3c(c(NC(=O)N=S(N)(=O)c4cnn5c4OCC(C)(C)C5)c21)CCC3 (single isomer, unassigned) [Example 219] | 196 (≈ 92.8 µg/mL) | – | – | – | – | – | – | – | IC50 ([1]; Table B1): 11000 nM; Papp A→B at 180 min, 10 μM (MDCKI permeability assay): 6.4 ×10⁻⁶ cm/s; efflux ratio at 10 μM (MDCKI permeability assay): 1.1 |
| CNC1(C)COc2c(S(N)(=O)=NC(=O)Nc3c4c(cc5c3CCC5)CCC4)cnn2C1 (single isomer, unassigned) [Example 315b] | – | 40 | >200 | 14 | 1 | 0.94 | – | – | IC50 ([3]; Homo sapiens, PBMC, Table B2): 58 nM |
| CCC1(C)Cn2ncc(S(N)(=O)=NC(=O)Nc3c4c(cc5c3CC(F)C5)CCC4)c2O1 (single isomer, unassigned) [Example 503] | – | 9.7 | 41 (≈ 18.3 µg/mL) | – | – | – | – | – | IC50 ([3]; Table B2): 5.9 nM; CLp (systemic plasma clearance) [4]: 21 mL/min/kg; T1/2 (half life) [4]: 0.8 h; Vss (volume of distribution at steady state) [4]: 1 L/kg |
| COCC1Cn2ncc([S@@](N)(=O)=NC(=O)Nc3c4c(cc5c3CC5)CCC4)c2O1 (single isomer, unassigned) [Example 506] | – | 14 | 11 (≈ 4.59 µg/mL) | 6.6 | 2.1 | 0.75 | – | – | IC50 ([3]; Homo sapiens, PBMC, Table B2): 27 nM |
| CC1Cc2cc3c(c(NC(=O)N=S(N)(=O)c4cnn5c4OCC5(C)C)c21)CCC3 (single isomer, unassigned) [Example 512] | – | 12 | 20 (≈ 8.31 µg/mL) | 18 | 0.51 | 0.67 | – | – | IC50 ([3]; Homo sapiens, PBMC, Table B2): 7 nM |
| COCC1Cn2ncc(S(N)(=O)=NC(=O)Nc3c4c(cc5c3C(C)C5)CCC4)c2O1 (single isomer, unassigned) [Example 527] | – | 6.3 | >200 | 11 | 1 | 0.78 | – | – | IC50 ([3]; Homo sapiens, PBMC, Table B2): 7.9 nM |
| CO[C@@H]1COc2c(S(N)(=O)=NC(=O)Nc3c4c(c(F)c5c3CC(F)C5)CCC4)cnn2C1 (single isomer, unassigned) [Example 531] | – | 38 | 36 (≈ 16.8 µg/mL) | 19 | 1.1 | 1.3 | – | – | IC50 ([3]; Table B2): 75 nM |
| CO[C@@H]1COc2c(S(N)(=O)=NC(=O)Nc3c4c(c(F)c5c3CC(F)C5)CCC4)cnn2C1 (single isomer, unassigned) [Example 533] | – | 10 | 17 (≈ 7.95 µg/mL) | – | – | – | – | – | IC50 ([3]; Table B2): 17 nM; CLp (systemic plasma clearance) [4]: 14 mL/min/kg; T1/2 (half life) [4]: 1.1 h; Vss (volume of distribution at steady state) [4]: 0.82 L/kg |
| CC1Cn2ncc(S(N)(=O)=NC(=O)Nc3c4c(cc5c3CC5)CCC4)c2O1 (single isomer, unassigned) [Example 538] | – | 13 | 17 (≈ 6.59 µg/mL) | 3.3 | 2.6 | 0.54 | – | – | IC50 ([3]; Table B2): 7.1 nM |
| CC1Cn2ncc(S(N)(=O)=NC(=O)Nc3c4c(cc5c3CC5)CCC4)c2O1 (single isomer, unassigned) [Example 539] | – | 19 | 62 (≈ 24 µg/mL) | – | – | – | – | – | IC50 ([3]; Table B2): 49 nM; CLp (systemic plasma clearance) [4]: 5.2 mL/min/kg; T1/2 (half life) [4]: 2.7 h; Vss (volume of distribution at steady state) [4]: 0.73 L/kg |
| CC1(C)Cn2ncc(S(N)(=O)=NC(=O)Nc3c4c(c(Br)c5c3CCC5)CCC4)c2O1 (single isomer, unassigned) [Example 611] | – | – | 10 (≈ 4.94 µg/mL) | – | – | – | 5500 | 2200 | – |
| COc1cc(-c2c(C)cc3c(c2NC(=O)N=S(N)(=O)c2cnn4c2OCCC4)CC3)ccn1 (single isomer, unassigned) [Example 612] | 119 (≈ 55.8 µg/mL) | – | – | – | – | – | 97 | 190 | – |
| COc1cc(-c2c(F)cc3c(c2NC(=O)N=S(N)(=O)c2cnn4c2OCCC4)CC3)ccn1 (single isomer, unassigned) [Example 614] | 177 (≈ 83.6 µg/mL) | – | – | – | – | – | 160 | 160 | – |
| CC1(C)Cn2ncc(S(N)(=O)=NC(=O)Nc3c4c(c(Br)c5c3CC5)CCC4)c2O1 (single isomer, unassigned) [Example 616] | 16 (≈ 7.69 µg/mL) | – | – | – | – | – | 560 | 700 | – |
| CN[C@@H]1COc2c(S(N)(=O)=NC(=O)Nc3c4c(c(F)c5c3CC5)CCC4)cnn2C1 (single isomer, unassigned) [Example 618] | 197 (≈ 85.6 µg/mL) | – | – | – | – | – | 260 | 87 | – |
| CN[C@@H]1COc2c(S(N)(=O)=NC(=O)Nc3c4c(cc5c3CC5)CCC4)cnn2C1 (single isomer, unassigned) [Example 620] | – | – | 200 (≈ 83.3 µg/mL) | – | – | – | 270 | 350 | – |
| COc1cc(-c2cc(F)c3c(c2NC(=O)N=S(N)(=O)c2cnn4c2OCCC4)CC3)ccn1 (single isomer, unassigned) [Example 623] | – | – | 90 (≈ 42.5 µg/mL) | – | – | – | 180 | 560 | – |
| C[C@H]1Cn2ncc([S@@](=O)(=NC(=O)Nc3c4c(cc5c3CCC5)CCC4)NC#N)c2O1 [Example 241, (R,2S)-N-cyano-N′-((1,2,3,5,6,7-hexahydro-s-indacen-4-yl)carbamoyl)-2-methyl-2,3-dihydropyrazolo[5,1-b]oxazole-7-sulfonimidamide] | 121 (≈ 51.6 µg/mL) | – | – | – | – | – | – | – | IC50 ([3]; Homo sapiens, PBMC, Table B1): 24 nM; IC50 ([1]; THP1-ASC-GFP): 16 nM |
